In one data set the test system is MNoV^CW3. The data set is described as follows: CRISPR screen in BV2-Cas9 cells, sgRNA enrichment after MNoV^CW3 infection. Particulars: for log2 fold enrichment after MNV infection relative to mock infected cells, CW3 MOI 0.05: MNoV^CW3, MOI 0.05, ten days post-infection; for log2 fold enrichment after MNV infection relative to mock infected cells, CW3 MOI 5: MNoV^CW3, MOI 5, ten days post-infection. Format: cell-based, murine norovirus. The procedure: (§1) BV2 cells were transduced with pXPR_101 (Addgene plasmid 52962) and selected with blasticidin for eleven days. Cas9 activity was assessed by transducing parental BV2 or BV2-Cas9 cells with pXPR_011 (Addgene plasmid 59702), expresses eGFP and a sgRNA targeting eGFP at an MOI<1 [1]. Cells were transduced for 2 days and subsequently, selected for five days with puromycin and the frequency of eGFP expression was assessed by flow cytometry. The mouse ASIAGO sgRNA CRISPR library contains six independent genome wide pools which each pool containing a unique sgRNA targeting each of 20,077 mouse genes. Four ASIAGO pools were independently used to generate the BV2 library (Doench et al submitted). Each ASIAGO pool was delivered by lentiviral transduction of 5×10^7 BV2 cells at an MOI ˜0.2. This equates to 1×10^7 transduced cells, which is sufficient for the integration of each sgRNA 500 independent times. Two days post transduction, puromycin was added to the media and transduced cells were selected for five days. For each experimental condition, 1×10^7 BV2-Cas9 cells containing sgRNAs were seeded in a T175 tissue culture flask. Cells were infected with either MNoV^CW3 or MNoV^CR6 at MOls of 0.05 and 5. Mock infected cells were harvested 48 hrs after seeding and served as a reference for sgRNA enrichment analysis. Ten days post-infection genomic DNA was isolated from surviving cells using a Qiamp DNA mini kit according to manufacturer instructions (Qiagen).
(§2) Illumina sequencing and STARS analysis was performed as described previously (Doench et al, in press). Briefly, genomic DNA was aliquoted into multiple wells of a 96-well plate with up to 10 μg of DNA in 50 μl total volume. A PCR mastermix consisting of ExTaq DNA polymerase (Clontech), ExTaq buffer, dNTP, P5 stagger primer, and water was generated. 40 μl of PCR master mix, and 10 μl of a barcoded primer was added to each well containing 50 μl of DNA. Samples were PCR amplified as follows: 95° C. for 1 min., followed by 28 cycles of 94° C. for 30 sec., 52.5° C. for 30 sec., 72° C. for 30 sec. with a final 10 min. at 72° C. PCR product was purified with Agencourt AMPure XP SPRI beads according to the manufacture's protocol (Beckman Coluter). Samples were sequenced on an Illumina HiSeq 2000. Barcodes in the P7 primer were deconvuluted and the sgRNA sequence was mapped to a reference file of sgRNAs in the ASIAGO library. To normalize for different numbers of reads per condition, read counts per sgRNA were normalized to 10^7 total reads per sample. This normalized value was then log-2 transformed. sgRNAs that were not sequenced were arbitrarily assigned a read count of 1. sgRNA frequencies were then analyzed using STARS software, which is available at broadinstitute.org/rnai/public/software/index (Doench et al, in press). STARS computes a score for each gene of rank-ordered sgRNA hits that was above […] of total sequenced sgRNAs. A STAR score was only assigned to genes that scored above this threshold in at least two of four independent genome wide pools.

The subject of another data set is MNoV^CR6. The data set is described as follows: CRISPR screen in BV2-Cas9 cells, sgRNA enrichment after MNoV^CR6 infection. Format: cell-based, murine norovirus. The settings on record: for log2 fold enrichment after MNV infection relative to mock infected cells, CR6 MOI 0.05: MNoV^CR6, MOI 0.05, ten days post-infection; for log2 fold enrichment after MNV infection relative to mock infected cells, CR6 MOI 5: MNoV^CR6, MOI 5, ten days post-infection. The procedure: as §1, §2

Consider “GAGTGTGTCATGTCGATATG: sgRNA used in screen, matches CD300la (listed as DNA, chemistry not given here)”, for which, in the data set with MNoV^CW3, the “log2 fold enrichment after MNV infection relative to mock infected cells, CW3 MOI 0.05” value is −6.2 log2 fold enrichment and the “log2 fold enrichment after MNV infection relative to mock infected cells, CW3 MOI 5” value is reported as −6.2 log2 fold enrichment. In addition, in the data set on MNoV^CR6, the “log2 fold enrichment after MNV infection relative to mock infected cells, CR6 MOI 0.05” value was −6.2 log2 fold enrichment and the “log2 fold enrichment after MNV infection relative to mock infected cells, CR6 MOI 5” value is given as −6.2 log2 fold enrichment.

“TACCACGCCACAGGACTCCA: sgRNA used in screen, matches CD300lg (listed as DNA, chemistry not given here)”: in the data set on MNoV^CW3, the “log2 fold enrichment after MNV infection relative to mock infected cells, CW3 MOI 0.05” value came to 0.0 log2 fold enrichment and the “log2 fold enrichment after MNV infection relative to mock infected cells, CW3 MOI 5” value is −6.2 log2 fold enrichment. Also, in the data set with MNoV^CR6, the “log2 fold enrichment after MNV infection relative to mock infected cells, CR6 MOI 0.05” value worked out at 0.0 log2 fold enrichment and the “log2 fold enrichment after MNV infection relative to mock infected cells, CR6 MOI 5” value is −6.2 log2 fold enrichment.

On to “GCAGCAAATCCAAATCTCAG: sgRNA used in screen, matches CD300lb (listed as DNA, chemistry not given here)”, for which, in the data set on MNoV^CW3, the “log2 fold enrichment after MNV infection relative to mock infected cells, CW3 MOI 0.05” value is −5.8 log2 fold enrichment and the “log2 fold enrichment after MNV infection relative to mock infected cells, CW3 MOI 5” value is −5.8 log2 fold enrichment. For the same substance, in the data set on MNoV^CR6, the “log2 fold enrichment after MNV infection relative to mock infected cells, CR6 MOI 0.05” value is reported as −5.8 log2 fold enrichment and the “log2 fold enrichment after MNV infection relative to mock infected cells, CR6 MOI 5” value was −5.8 log2 fold enrichment.

In the case of “CTCCACGTAGGTACACCGCA: sgRNA used in screen, matches CD300lg (listed as DNA, chemistry not given here)”, in the data set with MNoV^CW3, the “log2 fold enrichment after MNV infection relative to mock infected cells, CW3 MOI 0.05” value is on record as −5.8 log2 fold enrichment and the “log2 fold enrichment after MNV infection relative to mock infected cells, CW3 MOI 5” value was −5.3 log2 fold enrichment. In the data set with MNoV^CR6, the “log2 fold enrichment after MNV infection relative to mock infected cells, CR6 MOI 0.05” value was −5.6 log2 fold enrichment and the “log2 fold enrichment after MNV infection relative to mock infected cells, CR6 MOI 5” value is −5.8 log2 fold enrichment.

“CCTGTGATCCAGAAGAGAAA: sgRNA used in screen, matches CD300lf (listed as DNA, chemistry not given here)”: in the data set on MNoV^CW3, the “log2 fold enrichment after MNV infection relative to mock infected cells, CW3 MOI 0.05” value came to 9.6 log2 fold enrichment and the “log2 fold enrichment after MNV infection relative to mock infected cells, CW3 MOI 5” value stood at 9.6 log2 fold enrichment. For the same substance, in the data set on MNoV^CR6, the “log2 fold enrichment after MNV infection relative to mock infected cells, CR6 MOI 0.05” value was determined as 9.6 log2 fold enrichment and the “log2 fold enrichment after MNV infection relative to mock infected cells, CR6 MOI 5” value was determined as 9.6 log2 fold enrichment.

As for “GGTCGTCCCTGATGGACACA: sgRNA used in screen, matches CD300lh (listed as DNA, chemistry not given here)”, in the data set with MNoV^CW3, the “log2 fold enrichment after MNV infection relative to mock infected cells, CW3 MOI 0.05” value stood at 12.0 log2 fold enrichment and the “log2 fold enrichment after MNV infection relative to mock infected cells, CW3 MOI 5” value is given as 7.8 log2 fold enrichment. In the data set with MNoV^CR6, the “log2 fold enrichment after MNV infection relative to mock infected cells, CR6 MOI 0.05” value is given as 12.0 log2 fold enrichment and the “log2 fold enrichment after MNV infection relative to mock infected cells, CR6 MOI 5” value stood at 11.0 log2 fold enrichment.

For the substance “TGTCACTGTGAAGATGGTGG: sgRNA used in screen, matches CD300lf (listed as DNA, chemistry not given here)”, in the data set on MNoV^CW3, the “log2 fold enrichment after MNV infection relative to mock infected cells, CW3 MOI 0.05” value was 8.4 log2 fold enrichment and the “log2 fold enrichment after MNV infection relative to mock infected cells, CW3 MOI 5” value is recorded as 13.3^B log2 fold enrichment. Besides, in the data set on MNoV^CR6, the “log2 fold enrichment after MNV infection relative to mock infected cells, CR6 MOI 0.05” value is given as 7.2 log2 fold enrichment and the “log2 fold enrichment after MNV infection relative to mock infected cells, CR6 MOI 5” value is recorded as −1.9 log2 fold enrichment.

In the case of “CATAGGTCACTGTAAAGGTG: sgRNA used in screen, matches CD300la (listed as DNA, chemistry not given here)”, in the data set with MNoV^CW3, the “log2 fold enrichment after MNV infection relative to mock infected cells, CW3 MOI 0.05” value is reported as −7.2 log2 fold enrichment and the “log2 fold enrichment after MNV infection relative to mock infected cells, CW3 MOI 5” value is on record as −7.2 log2 fold enrichment. Besides, in the data set with MNoV^CR6, the “log2 fold enrichment after MNV infection relative to mock infected cells, CR6 MOI 0.05” value is −7.2 log2 fold enrichment and the “log2 fold enrichment after MNV infection relative to mock infected cells, CR6 MOI 5” value was −7.2 log2 fold enrichment.

For the substance “TCAGAGAAAGAAACGAAGAG: sgRNA used in screen, matches CD300lb (listed as DNA, chemistry not given here)”, in the data set with MNoV^CW3, the “log2 fold enrichment after MNV infection relative to mock infected cells, CW3 MOI 0.05” value was −5.5 log2 fold enrichment and the “log2 fold enrichment after MNV infection relative to mock infected cells, CW3 MOI 5” value is listed as −5.5 log2 fold enrichment. Also, in the data set with MNoV^CR6, the “log2 fold enrichment after MNV infection relative to mock infected cells, CR6 MOI 0.05” value is recorded as −5.5 log2 fold enrichment and the “log2 fold enrichment after MNV infection relative to mock infected cells, CR6 MOI 5” value was −5.5 log2 fold enrichment.

With “CTACGCAAATCAGGACCAGG: sgRNA used in screen, matches CD300lg (listed as DNA, chemistry not given here)”, in the data set on MNoV^CW3, the “log2 fold enrichment after MNV infection relative to mock infected cells, CW3 MOI 0.05” value is on record as −6.4 log2 fold enrichment and the “log2 fold enrichment after MNV infection relative to mock infected cells, CW3 MOI 5” value is listed as −6.4 log2 fold enrichment. Further, in the data set on MNoV^CR6, the “log2 fold enrichment after MNV infection relative to mock infected cells, CR6 MOI 0.05” value is recorded as −6.4 log2 fold enrichment and the “log2 fold enrichment after MNV infection relative to mock infected cells, CR6 MOI 5” value is −6.4 log2 fold enrichment.

On to “ACGGAAGTGAGAAAGAAAAG: sgRNA used in screen, matches CD300le (listed as DNA, chemistry not given here)”, for which, in the data set on MNoV^CW3, the “log2 fold enrichment after MNV infection relative to mock infected cells, CW3 MOI 0.05” value is −6.6 log2 fold enrichment and the “log2 fold enrichment after MNV infection relative to mock infected cells, CW3 MOI 5” value is −6.6 log2 fold enrichment. For the same substance, in the data set on MNoV^CR6, the “log2 fold enrichment after MNV infection relative to mock infected cells, CR6 MOI 0.05” value is −6.6 log2 fold enrichment and the “log2 fold enrichment after MNV infection relative to mock infected cells, CR6 MOI 5” value is −6.6 log2 fold enrichment.

Turning to “CGTAGCCAGACACAGAGCCA: sgRNA used in screen, matches CD300le (listed as DNA, chemistry not given here)”, in the data set on MNoV^CW3, the “log2 fold enrichment after MNV infection relative to mock infected cells, CW3 MOI 0.05” value is on record as −5.9 log2 fold enrichment and the “log2 fold enrichment after MNV infection relative to mock infected cells, CW3 MOI 5” value is on record as −5.5 log2 fold enrichment. In addition, in the data set on MNoV^CR6, the “log2 fold enrichment after MNV infection relative to mock infected cells, CR6 MOI 0.05” value is −5.8 log2 fold enrichment and the “log2 fold enrichment after MNV infection relative to mock infected cells, CR6 MOI 5” value is on record as −5.9 log2 fold enrichment.

On to “GCTACTTACCTGGGAGGAAA: sgRNA used in screen, matches CD300lh (listed as DNA, chemistry not given here)”, for which, in the data set with MNoV^CW3, the “log2 fold enrichment after MNV infection relative to mock infected cells, CW3 MOI 0.05” value is reported as −5.9 log2 fold enrichment and the “log2 fold enrichment after MNV infection relative to mock infected cells, CW3 MOI 5” value is −5.9 log2 fold enrichment. For the same substance, in the data set on MNoV^CR6, the “log2 fold enrichment after MNV infection relative to mock infected cells, CR6 MOI 0.05” value is −5.9 log2 fold enrichment and the “log2 fold enrichment after MNV infection relative to mock infected cells, CR6 MOI 5” value is on record as −5.9 log2 fold enrichment.

With “GGATCCAGTCACAGGTCCAG: sgRNA used in screen, matches CD300lf, CD300lh (listed as DNA, chemistry not given here)”, in the data set on MNoV^CW3, the “log2 fold enrichment after MNV infection relative to mock infected cells, CW3 MOI 0.05” value is recorded as 0.0 log2 fold enrichment and the “log2 fold enrichment after MNV infection relative to mock infected cells, CW3 MOI 5” value amounted to 12.5 log2 fold enrichment. In addition, in the data set on MNoV^CR6, the “log2 fold enrichment after MNV infection relative to mock infected cells, CR6 MOI 0.05” value worked out at 0.0 log2 fold enrichment and the “log2 fold enrichment after MNV infection relative to mock infected cells, CR6 MOI 5” value came to 12.6 log2 fold enrichment.

Take “GGAAGAGGATGAGCAGAGCA: sgRNA used in screen, no identical CD300 match marked (listed as DNA, chemistry not given here)”: in the data set with MNoV^CW3, the “log2 fold enrichment after MNV infection relative to mock infected cells, CW3 MOI 0.05” value is given as −6.4 log2 fold enrichment and the “log2 fold enrichment after MNV infection relative to mock infected cells, CW3 MOI 5” value is reported as −6.4 log2 fold enrichment. In the data set with MNoV^CR6, the “log2 fold enrichment after MNV infection relative to mock infected cells, CR6 MOI 0.05” value was −6.4 log2 fold enrichment and the “log2 fold enrichment after MNV infection relative to mock infected cells, CR6 MOI 5” value is on record as −6.4 log2 fold enrichment.
